pKi: −log10 of the molar value.
Target: T1, Aurora-A kinase (Homo sapiens, UniProt O14965)
T1 construct: purchased Invitrogen (Carlsbad, CA, USA)
T1 sequence (O14965 1-403): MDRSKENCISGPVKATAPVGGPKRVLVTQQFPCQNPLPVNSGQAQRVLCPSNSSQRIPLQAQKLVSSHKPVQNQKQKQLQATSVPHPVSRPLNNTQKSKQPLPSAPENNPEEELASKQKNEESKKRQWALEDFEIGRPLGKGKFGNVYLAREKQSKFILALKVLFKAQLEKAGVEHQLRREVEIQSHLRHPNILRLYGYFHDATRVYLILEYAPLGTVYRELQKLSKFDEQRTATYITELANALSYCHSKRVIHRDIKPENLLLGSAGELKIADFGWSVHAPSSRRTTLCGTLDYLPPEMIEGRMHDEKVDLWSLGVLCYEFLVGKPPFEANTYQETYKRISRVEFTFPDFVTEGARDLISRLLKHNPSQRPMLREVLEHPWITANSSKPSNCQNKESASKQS
Experiment: FRET-based Z'-LYTE kinase enzyme inhibition assay
Assay type: biochemical
Conditions: 10 µM, duplicates, Z'-LYTE
Procedure: This bioassay was conducted using Z′-LYTE® kinase assay (Invitrogen, Carlsbad, CA, USA) [68, 69]. This biochemical assay depends on fluorescence emission as detection method utilizing a synthetic fluorescence resonance energy transfer (FRET) peptide with two fluorophores: coumarin that work as donor and fluorescein as acceptor [69]. Each hit or compound was dissolved in DMSO to form 10 mM stock solution. Hits were screened at 10 μM concentration. The bioassay was performed in black 384-well plate. For each assay, 100 nL of tested compound stock solution (10 mM) was mixed with 2.4 μL kinase buffer, 5 μL (peptide substrate/Aurora-A Kinase) mixture, and 2.5 μL ATP solution.
The tests were conducted in duplicates.

SMILES | % Inhibition at 10 µM [%]
COc1ccc(C=NNS(=O)(=O)c2ccc(NC(C)=O)cc2)cc1 [Hit 89] | 2
O=C(NC(Cc1ccc2c(c1)OCO2)C(=O)O)c1ccccc1 (centres unmarked) [Hit 139] | 6
COc1ccc(C(=O)OCc2ccc3c(c2)OCO3)cc1 [Hit 94] | -2
COc1ccc(CNCCNCc2ccc(OC)cc2)cc1 [Hit 100] | 7
COc1ccc(C(N)C(O)c2ccc(OC)cc2)cc1 (centres unmarked) [Hit 145] | 0
COc1ccc2c(ccc[n+]2CC(=O)c2ccc(SC)cc2)c1 [Hit 93] | 14
COc1ccc(NC(=O)c2ccc(Cl)cc2Cl)cc1 [Hit 108] | -7
CCNC(Cc1ccc(OC)cc1)c1ccc(OC)cc1 (centres unmarked) [Hit 91] | -2
COc1ccc(C(=O)OCc2ccc3c(c2)OCO3)cc1 [Hit 90] | -2
COc1ccc(C(=O)[C@H](CN(C)C)c2ccc(OC)cc2)cc1 [Hit 105] | 1
COc1ccc(C(=O)CCCCC(=O)c2ccc(OC)cc2)cc1 [Hit 114] | 4
C[n+]1c(/C=C/c2ccc([N+](=O)[O-])cc2)oc2ccccc21 [Hit 111] | 1
NOS(=O)c1ccc(N=CC=Cc2ccccc2)cc1 (centres unmarked) [Hit 116] | 21
CC(=NNS(=O)(=O)c1ccc([N+](=O)[O-])cc1)c1ccc(C)cc1 [Hit 86] | 12
CNC(Cc1ccc(OC)cc1)c1ccc(OC)cc1 (centres unmarked) [Hit 154] | -2
COc1ccc(NC(=O)CC(=O)Nc2ccc(OC)cc2)cc1 [Hit 101] | 6
O=[N+]([O-])c1cccc(S(=O)(=O)Nc2ccc(Cl)cc2)c1 [Hit 118] | 7
CC(Cc1ccccc1)=NNS(=O)(=O)c1ccc([N+](=O)[O-])cc1 [Hit 83] | 7
COc1ccc(CCCCCCc2ccc(OC)cc2)cc1 [Hit 115] | -1
CC(=O)Nc1ccc(S(=O)(=O)NN=Cc2cc(Cl)ccc2O)cc1 [Hit 103] | 12

SMILES | % Inhibition at 10 µM [%]
COc1cccc(/C=C/C(=O)/C=C/C=C/c2ccccc2)c1 [Hit 96] | 0
COc1ccc(CC(C)NCC(O)c2ccc(O)c(O)c2)cc1 (centres unmarked) [Hit 95] | 30
CCOC(=O)C(=Cc1cc(C)c(OC(C)=O)c(OC)c1)NC(=O)c1ccccc1 [Hit 97] | -4
COc1ccc(CCc2ccc3cc(OC)ccc3n2)cc1 [Hit 98] | -5
CC(=O)Nc1ccc(S(=O)(=O)NN=Cc2ccc(C)cc2)cc1 [Hit 102] | 6
CCOc1ccc(N=C(C)Nc2ccc(OCC)cc2)cc1 [Hit 110] | 3
COc1ccc(C(=O)Oc2ccc(C=O)cc2OC)cc1 [Hit 109] | -142
COc1ccc(/C=N/N=C/c2ccc(OC)cc2)cc1 [Hit 82] | 5
CC(Cc1ccccc1)NCC(=O)c1ccc(O)c(O)c1 (centres unmarked) [Hit 107] | 25
COc1ccc(CC(=O)c2ccc(OC)c(OC)c2)cc1OC [Hit 117] | 7
O=C(NCCc1ccccc1)c1ccc([N+](=O)[O-])cc1 [Hit 87] | -4
CC[C@@H](C(=O)c1ccc(OC)cc1)c1ccc(OC)cc1 [Hit 119] | -3
COc1ccc(-c2oc3ccc(C)cc3c(=O)c2O)cc1 [Hit 80] | 20
COc1ccc(C(=O)C=Cc2ccc3c(c2)OCO3)cc1 [Hit 113] | 8
COc1cccc(CC(C)NCC(O)c2ccc(O)c(O)c2)c1 (centres unmarked) [Hit 152] | 1
COc1ccc(C(=O)OCc2ccc3c(c2)OCO3)cc1 [Hit 99] | 5
COc1ccc(C(Cc2ccc(Cl)cc2)NCCO)cc1 (centres unmarked) [Hit 92] | 3
NC[C@@H](O)c1ccc(Nc2ccnc3cc(Cl)ccc23)cc1 [Hit 104] | 23
CCCCN[C@@H](c1ccc(OC)cc1)[C@H](O)c1ccc(OC)cc1 [Hit 81] | 3
Cc1ccc[n+](CC(=O)c2ccc([N+](=O)[O-])cc2)c1 [Hit 106] | 6

Now from value to molecule:

% Inhibition at 10 µM [%] | SMILES
-1 | CCOc1ccc(NC(=O)Nc2ccc(OCC)cc2)cc1 [Hit 125]
-2 | COc1ccc(C[N+](C)(C)Cc2ccc(OC)cc2)cc1 [Hit 120]
0 | COc1ccc(OC(=O)c2ccc(Cl)cc2)cc1 [Hit 127]
5 | O=[N+]([O-])c1ccc(S(=O)(=O)NN=Cc2ccco2)cc1 [Hit 136]
4 | Cc1cc[n+](CC(=O)c2ccc([N+](=O)[O-])cc2)cc1 [Hit 146]
3 | COc1ccc(C=NCCN=Cc2ccc(OC)cc2)cc1 [Hit 129]
-6 | O=C(CCCc1ccc([N+](=O)[O-])cc1)c1ccccc1 [Hit 153]
3 | O=C(OCC=Cc1ccccc1)c1ccc([N+](=O)[O-])cc1 [Hit 131]
-1 | COc1ccc(C(=O)C(O)c2ccc(OC)cc2)cc1 (centres unmarked) [Hit 149]
-1 | COc1ccc(NC(=O)c2ccc(Cl)cc2)cc1 [Hit 138]
0 | CCCCNC(C(=O)c1ccc(OC)cc1)c1ccc(OC)cc1 (centres unmarked) [Hit 144]
-2 | CCC(=Cc1ccc(OC)cc1)C(=O)c1ccc(OC)cc1 [Hit 126]
3 | COc1ccc(C2OC(c3ccc(OC)cc3)c3ccccc32)cc1 (centres unmarked) [Hit 133]
-7 | Oc1ccc(/C=C/c2ccc(Cl)cc2)cc1 [Hit 151]
-5 | COc1ccc(C=Cc2ccc(Cl)cc2)cc1 [Hit 128]
7 | COc1ccc(/N=N/c2ccc(O)cc2)cc1 [Hit 135]
8 | COc1ccc(N=Nc2ccc(OC)cc2)cc1 [Hit 134]
14 | O=C(CNCCCc1ccccc1)c1ccc(O)c(O)c1 [Hit 147]
-3 | COc1ccc(CC(=O)c2ccc(OC)cc2)cc1 [Hit 150]
-3 | O=[N+]([O-])c1ccc(COc2ccc(Cl)cc2)cc1 [Hit 142]
22 | Cc1ccc(S(=O)(=O)Nc2ccc3cc([N+](=O)[O-])ccc3c2[N+](=O)[O-])cc1 [Hit 132]
-7 | COc1ccc([C@@H](O)Cc2ccc(Cl)cc2)cc1 [Hit 140]
-1 | COc1ccc(CCC(N)c2ccc(OC)cc2)cc1 (centres unmarked) [Hit 122]
-2 | COc1cccc(C(N)CCc2cc(OC)c(OC)c(OC)c2)c1 (centres unmarked) [Hit 124]
-72 | CN(C)CC(O)c1ccc(C=Cc2ccc(Cl)cc2)cc1 (centres unmarked) [Hit 143]
-2 | COc1ccc(C=Cc2ccc3ccccc3n2)cc1 [Hit 121]
-3 | COc1ccc(N=[N+]([O-])c2ccc(OC)cc2)cc1 [Hit 148]
-30 | O=C(Oc1ccc(Cl)cc1Cl)c1ccc([N+](=O)[O-])cc1 [Hit 137]

Target: T1, Aurora-A kinase
Experiment: not given
Conditions: Table S1, ChEMBL; ref Bebbington, et al., 2009; cited from earlier work

SMILES | pKi
CCC(=O)Nc1ccc(Sc2nc(Nc3cc(C)[nH]n3)cc(N3CCC3)n2)cc1 [Compound 56] | 8.62
CCC(=O)Nc1ccc(Sc2nc(Nc3cc(C)[nH]n3)cc(C(C)(C)C)n2)cc1 [Compound 54] | 8.00
CC(=O)Nc1ccc(Sc2nc(C)cc(Nc3cc(C)[nH]n3)n2)cc1 [Compound 50] | 7.74
CCC(=O)Nc1ccc(Sc2nc(Nc3cc(C)[nH]n3)cc(N3CCCCC3)n2)cc1 [Compound 57] | 8.80

Same assay, conditions: Table S1, ChEMBL; ref Mortlock, et al., 2007; cited from earlier work

SMILES | pKi
CCN(CCO)CCCOc1cc2ncnc(Nc3cc(CC(=O)Nc4cccc(F)c4)[nH]n3)c2cc1OC [Compound 17] | 6.72
COc1cc2c(Nc3cc(CC(=O)Nc4cccc(F)c4)[nH]n3)ncnc2cc1OCCCN(C)CCO [Compound 16] | 7.19
COc1cc2c(Nc3cc(CC(=O)Nc4cccc(F)c4F)[nH]n3)ncnc2cc1OCCCN1CCC(O)CC1 [Compound 13] | 6.66
CCCN(CCO)CCCOc1cc2ncnc(Nc3cc(CC(=O)Nc4cccc(F)c4)[nH]n3)c2cc1OC [Compound 18] | 6.66
COc1cc2c(Nc3cc(CC(=O)Nc4cccc(F)c4)[nH]n3)ncnc2cc1OCCCNCCO [Compound 15] | 6.16
CCCN(CCO)CCCOc1ccc2c(Nc3cc(CC(=O)Nc4cccc(F)c4F)[nH]n3)ncnc2c1 [Compound 23] | 6.46
COc1cc2c(Nc3cc(CC(=O)Nc4cccc(O)c4)[nH]n3)ncnc2cc1OCCCN1CCC(CO)CC1 [Compound 9] | 5.40
COc1cc2c(Nc3cc(CC(=O)Nc4cccc(F)c4F)[nH]n3)ncnc2cc1OCCCN1CCC(CO)CC1 [Compound 5] | 6.39
COc1cc2c(Nc3cc(CC(=O)Nc4cccc(Cl)c4)[nH]n3)ncnc2cc1OCCCN1CCC(CO)CC1 [Compound 7] | 6.35

Same assay, conditions: Table S1, ChEMBL; ref Pollard and Mortimore, 2009; cited from earlier work

SMILES | pKi
Cc1cc(Nc2nc(-c3ccccc3)nc3ccccc23)n[nH]1 [Compound 27] | 7.24
CC(=O)Nc1ccc(Sc2nc(Nc3cc(C)[nH]n3)c3ccccc3n2)cc1 [Compound 28] | 8.40

Same assay, conditions: Table S1, ChEMBL; ref Wang, et al., 2010; cited from earlier work

SMILES | pKi
COc1cc(Nc2nccc(-c3sc(C)nc3C)n2)cc(OC)c1OC [Compound 68] | 9.40
CNc1ccc(Nc2nccc(-c3sc(C)nc3C)n2)cc1 [Compound 66] | 7.74
CNc1nc(C)c(-c2ccnc(Nc3cc(OC)c(OC)c(OC)c3)n2)s1 [Compound 69] | 9.00

From paper PMC7766225, “Structure-Based Discovery and Bioactivity Evaluation of Novel Aurora-A Kinase Inhibitors as Anticancer Agents via Docking-Based Comparative Intermolecular Contacts Analysis (dbCICA)” (Molecules, 2020)
